The values that follow come from patent US11590129B2, “Combination therapy with an antitumor alkaloid” (PHARMA MAR, S.A., priority 2010, dated 2023).

Common to all, as to experiment: cells
Experiment [1] relates to IGROV-1 human ovarian adenocarcinoma cell line. The note with it: Homo sapiens, IGROV-1, 72 h.
Experiment [2] relates to JURKAT human leukemia cell line. The note with it: Homo sapiens, Jurkat, 72 h. The method, then:
(§1) Additional serial dilutions were prepared in serum-free culture medium to achieve a final 4× concentration. Aliquots of 50 μL of each diluted compound were added per well.
(§2) JURKAT and MOLT-4 were the human leukemia cell lines selected for this assay, which were obtained from the American Type Culture Collection (ATCC).
(§3) Briefly, cells were seeded in 96 well microtiter plates at a density of 50000 cells per well in 150 μL of culture medium and incubated for 4-6 hours in drug-free medium before treatment with vehicle alone or test compounds for 72 hours.
(§4) After incubation, the cytotoxic effect was evaluated using a MTT reduction assay. 50 μL of MTT solution (1 mg/mL) were added to the wells and incubated for 15-17 hours at 37° C. until formazan crystals were formed. After gently removing the culture medium, DMSO was added to dissolve the insoluble purple formazan product into a colored solution. […] Results were expressed as percentage of control cell growth. The EC50 values (half-maximal effective concentration) used for the combination studies were calculated using Prism v5.02 software (GraphPad). EC50 was expressed as molar concentration and represented the mean of at least three independent assays.
(§5) b. In a second set of experiments, concentration-response curves for the agents tested, both alone and in two-drug combination, were performed, using the same methodology described in the previous paragraph.
(§6) Using these starting concentrations, constant serial dilutions were performed to generate the concentration-response curves for each set of drugs, alone and in combination.
(§7) Based on this equation, the term “combination index” (CI) is used as a quantitative measure of the degree of drug interactions. […] CI values were calculated by solving the equation for different values of fa (i.e., for different degrees of cell groth inhibition).
(§8) Data were analyzed using CalcuSyn software (Biosoft, Cambridge, UK). For statistical analysis and graphs Prism software (GraphPad, San Diego, USA) was used. All the results represent the mean of at least three independent experiments.

In experiment [3] the test system is MOLT-4 human leukemia cell line. The conditions noted are these: Homo sapiens, MOLT-4, 72 h. The method, then: as §1, §2, §3, §4, §5, §6, §7, §8

For orientation: IC50 means the concentration that inhibits the measured activity by half. As a reminder, the EC50 is the midpoint of the concentration-response curve. Consider `COc1ccc2[nH]c3c(c2c1)CCN[C@]31CS[C@@H]2c3c(OC(C)=O)c(C)c4c(c3[C@H](COC1=O)N1[C@@H]2[C@H]2c3c(cc(C)c(OC)c3O)C[C@@H]([C@@H]1O)N2C)OCO4` [PM01183], for which the IC50 in experiment [1] was 3.2 nM. In addition, the figures for the EC50 in experiment [2] and in experiment [3] were 1.55 nM and 0.857 nM, respectively.
